# Measured values from PubChem BioAssay (NCI).
#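 Interpolation was linear, between the two tested concentrations surrounding the appropriate level; five concentrations were tested over 48 hours in 96-well plates. The concentration for 50% growth inhibition is given as GI50. TGI denotes the concentration required for complete inhibition of growth.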
# Assays:
# Assay in all cases: NCI-60 cell line screen, 48 h
# 786-0 renal = tested on: 786-0 renal
# A498 renal = tested on: A498 renal
# A549 NSCLC = tested on: A549 NSCLC
# ACHN renal = tested on: ACHN renal
# CAKI-1 renal = tested on: CAKI-1 renal
# CCRF-CEM leukemia = tested on: CCRF-CEM leukemia
# COLO 205 colon = tested on: COLO 205 colon
# DLD-1 colon = tested on: DLD-1 colon
# DMS 114 small cell lung = tested on: DMS 114 small cell lung
# DMS 273 small cell lung = tested on: DMS 273 small cell lung
# EKVX NSCLC = tested on: EKVX NSCLC
# HCC-2998 colon = tested on: HCC-2998 colon
# HCT-116 colon = tested on: HCT-116 colon
# HCT-15 colon = tested on: HCT-15 colon
# HL-60(TB) leukemia = tested on: HL-60(TB) leukemia
# HOP-62 NSCLC = tested on: HOP-62 NSCLC
# HOP-92 NSCLC = tested on: HOP-92 NSCLC
# HT29 colon = tested on: HT29 colon
# IGROV1 ovarian = tested on: IGROV1 ovarian
# K-562 leukemia = tested on: K-562 leukemia
# KM12 colon = tested on: KM12 colon
# KM20L2 colon = tested on: KM20L2 colon
# LOX IMVI melanoma = tested on: LOX IMVI melanoma
# LXFL 529 NSCLC = tested on: LXFL 529 NSCLC
# M14 melanoma = tested on: M14 melanoma
# M19-MEL melanoma = tested on: M19-MEL melanoma
# MALME-3M melanoma = tested on: MALME-3M melanoma
# NCI-H226 lung = tested on: NCI-H226 lung
# NCI-H23 lung = tested on: NCI-H23 lung
# NCI-H460 lung = tested on: NCI-H460 lung
# NCI-H522 lung = tested on: NCI-H522 lung
# OVCAR-3 ovarian = tested on: OVCAR-3 ovarian
# OVCAR-4 ovarian = tested on: OVCAR-4 ovarian
# OVCAR-5 ovarian = tested on: OVCAR-5 ovarian
# OVCAR-8 ovarian = tested on: OVCAR-8 ovarian
# RPMI-8226 leukemia = tested on: RPMI-8226 leukemia
# RXF 393 renal = tested on: RXF 393 renal
# SF-268 CNS = tested on: SF-268 CNS
# SF-295 CNS = tested on: SF-295 CNS
# SF-539 CNS = tested on: SF-539 CNS
# SK-MEL-2 melanoma = tested on: SK-MEL-2 melanoma
# SK-MEL-28 melanoma = tested on: SK-MEL-28 melanoma
# SK-MEL-5 melanoma = tested on: SK-MEL-5 melanoma
# SK-OV-3 ovarian = tested on: SK-OV-3 ovarian
# SN12C renal = tested on: SN12C renal
# SNB-19 CNS = tested on: SNB-19 CNS
# SNB-75 CNS = tested on: SNB-75 CNS
# SNB-78 CNS = tested on: SNB-78 CNS
# SW-620 colon = tested on: SW-620 colon
# TK-10 renal = tested on: TK-10 renal
# U251 CNS = tested on: U251 CNS
# UACC-257 melanoma = tested on: UACC-257 melanoma
# UACC-62 melanoma = tested on: UACC-62 melanoma
# UO-31 renal = tested on: UO-31 renal
# XF 498 CNS = tested on: XF 498 CNS
# MOLT-4 leukemia = tested on: MOLT-4 leukemia
smiles,measurement,setting,value
NC(=S)N/N=C1/CN(c2ccc(Cl)c(Cl)c2)CC(=O)C1c1nc2ccccc2s1 (stereo not drawn),TGI,786-0 renal,> 100000 nM
same,TGI,A498 renal,> 100000 nM
same,TGI,A549 NSCLC,> 100000 nM
same,TGI,ACHN renal,> 100000 nM
same,TGI,CAKI-1 renal,> 100000 nM
same,TGI,CCRF-CEM leukemia,> 100000 nM
same,TGI,COLO 205 colon,> 100000 nM
same,TGI,DLD-1 colon,> 100000 nM
same,TGI,DMS 114 small cell lung,> 100000 nM
same,TGI,DMS 273 small cell lung,> 100000 nM
same,TGI,EKVX NSCLC,> 100000 nM
same,TGI,HCC-2998 colon,> 100000 nM
same,TGI,HCT-116 colon,> 100000 nM
same,TGI,HCT-15 colon,> 100000 nM
same,TGI,HL-60(TB) leukemia,> 100000 nM
same,TGI,HOP-62 NSCLC,> 100000 nM
same,TGI,HOP-92 NSCLC,> 100000 nM
same,TGI,HT29 colon,> 100000 nM
same,TGI,IGROV1 ovarian,> 100000 nM
same,TGI,K-562 leukemia,> 100000 nM
same,TGI,KM12 colon,> 100000 nM
same,TGI,KM20L2 colon,> 100000 nM
same,TGI,LOX IMVI melanoma,> 100000 nM
same,TGI,LXFL 529 NSCLC,> 100000 nM
same,TGI,M14 melanoma,> 100000 nM
same,TGI,M19-MEL melanoma,> 100000 nM
same,TGI,MALME-3M melanoma,> 100000 nM
same,TGI,NCI-H226 lung,> 100000 nM
same,TGI,NCI-H23 lung,> 100000 nM
same,TGI,NCI-H460 lung,> 100000 nM
same,TGI,NCI-H522 lung,> 100000 nM
same,TGI,OVCAR-3 ovarian,> 100000 nM
same,TGI,OVCAR-4 ovarian,> 100000 nM
same,TGI,OVCAR-5 ovarian,> 100000 nM
same,TGI,OVCAR-8 ovarian,> 100000 nM
same,TGI,RPMI-8226 leukemia,> 100000 nM
same,TGI,RXF 393 renal,> 100000 nM
same,TGI,SF-268 CNS,> 100000 nM
same,TGI,SF-295 CNS,> 100000 nM
same,TGI,SF-539 CNS,> 100000 nM
same,TGI,SK-MEL-2 melanoma,> 100000 nM
same,TGI,SK-MEL-28 melanoma,> 100000 nM
same,TGI,SK-MEL-5 melanoma,> 100000 nM
same,TGI,SK-OV-3 ovarian,> 100000 nM
same,TGI,SN12C renal,> 100000 nM
same,TGI,SNB-19 CNS,> 100000 nM
same,TGI,SNB-75 CNS,> 100000 nM
same,TGI,SNB-78 CNS,> 100000 nM
same,TGI,SW-620 colon,> 100000 nM
same,TGI,TK-10 renal,> 100000 nM
same,TGI,U251 CNS,> 100000 nM
same,TGI,UACC-257 melanoma,> 100000 nM
same,TGI,UACC-62 melanoma,> 100000 nM
same,TGI,UO-31 renal,> 100000 nM
same,TGI,XF 498 CNS,> 100000 nM
COC(=O)CC(=O)NCC1=CCC(=O)CC1,TGI,786-0 renal,> 100000 nM
same,TGI,A498 renal,> 100000 nM
same,TGI,A549 NSCLC,> 100000 nM
same,TGI,CAKI-1 renal,> 100000 nM
same,TGI,CCRF-CEM leukemia,> 100000 nM
same,TGI,COLO 205 colon,> 100000 nM
same,TGI,DLD-1 colon,> 100000 nM
same,TGI,DMS 114 small cell lung,> 100000 nM
same,TGI,DMS 273 small cell lung,> 100000 nM
same,TGI,EKVX NSCLC,> 100000 nM
same,TGI,HCC-2998 colon,> 100000 nM
same,TGI,HCT-116 colon,> 100000 nM
same,TGI,HCT-15 colon,> 100000 nM
same,TGI,HL-60(TB) leukemia,> 100000 nM
same,TGI,HOP-62 NSCLC,> 100000 nM
same,TGI,HOP-92 NSCLC,> 100000 nM
same,TGI,HT29 colon,> 100000 nM
same,TGI,IGROV1 ovarian,> 100000 nM
same,TGI,K-562 leukemia,> 100000 nM
same,TGI,KM12 colon,> 100000 nM
same,TGI,LOX IMVI melanoma,> 100000 nM
same,TGI,LXFL 529 NSCLC,> 100000 nM
same,TGI,M14 melanoma,> 100000 nM
same,TGI,M19-MEL melanoma,> 100000 nM
same,TGI,MALME-3M melanoma,> 100000 nM
same,TGI,MOLT-4 leukemia,> 100000 nM
same,TGI,NCI-H23 lung,> 100000 nM
same,TGI,NCI-H460 lung,> 100000 nM
same,TGI,NCI-H522 lung,> 100000 nM
same,TGI,OVCAR-3 ovarian,> 100000 nM
same,TGI,OVCAR-4 ovarian,> 100000 nM
same,TGI,OVCAR-8 ovarian,> 100000 nM
same,TGI,RPMI-8226 leukemia,> 100000 nM
same,TGI,RXF 393 renal,> 100000 nM
same,TGI,SF-268 CNS,> 100000 nM
same,TGI,SF-295 CNS,> 100000 nM
same,TGI,SF-539 CNS,> 100000 nM
same,TGI,SK-MEL-2 melanoma,> 100000 nM
same,TGI,SK-MEL-28 melanoma,> 100000 nM
same,TGI,SK-MEL-5 melanoma,> 100000 nM
same,TGI,SK-OV-3 ovarian,> 100000 nM
same,TGI,SN12C renal,> 100000 nM
same,TGI,SNB-19 CNS,> 100000 nM
same,TGI,SNB-75 CNS,> 100000 nM
same,TGI,SNB-78 CNS,> 100000 nM
same,TGI,SW-620 colon,> 100000 nM
same,TGI,TK-10 renal,> 100000 nM
same,TGI,U251 CNS,> 100000 nM
same,TGI,UACC-257 melanoma,> 100000 nM
same,TGI,UACC-62 melanoma,> 100000 nM
same,TGI,UO-31 renal,> 100000 nM
same,TGI,XF 498 CNS,> 100000 nM
CCC[CH2][Sn]([CH2]CCC)([CH2]CCC)[O]C(=O)C(OC)c1ccccc1 (stereo not drawn),GI50,786-0 renal,142 nM
same,TGI,786-0 renal,288 nM
same,GI50,A498 renal,123 nM
same,TGI,A498 renal,263 nM
same,GI50,A549 NSCLC,117 nM
same,TGI,A549 NSCLC,265 nM
same,GI50,ACHN renal,129 nM
same,TGI,ACHN renal,257 nM
same,GI50,CAKI-1 renal,115 nM
same,TGI,CAKI-1 renal,238 nM
same,GI50,COLO 205 colon,134 nM
same,TGI,COLO 205 colon,264 nM
same,GI50,EKVX NSCLC,27.7 nM
same,TGI,EKVX NSCLC,228 nM
same,GI50,HCC-2998 colon,38.1 nM
same,TGI,HCC-2998 colon,144 nM
same,GI50,HCT-116 colon,50.8 nM
same,TGI,HCT-116 colon,182 nM
same,GI50,HCT-15 colon,86.4 nM
same,TGI,HCT-15 colon,211 nM
same,GI50,HL-60(TB) leukemia,41.8 nM
same,TGI,HL-60(TB) leukemia,256 nM
same,GI50,HOP-62 NSCLC,135 nM
same,TGI,HOP-62 NSCLC,270 nM
same,GI50,HOP-92 NSCLC,27.4 nM
same,TGI,HOP-92 NSCLC,175 nM
same,GI50,HT29 colon,50.7 nM
same,TGI,HT29 colon,168 nM
same,GI50,IGROV1 ovarian,130 nM
same,TGI,IGROV1 ovarian,295 nM
same,GI50,KM12 colon,52 nM
same,TGI,KM12 colon,178 nM
same,GI50,KM20L2 colon,49.1 nM
same,TGI,KM20L2 colon,171 nM
same,GI50,LOX IMVI melanoma,30.9 nM
same,TGI,LOX IMVI melanoma,130 nM
same,GI50,M14 melanoma,133 nM
same,TGI,M14 melanoma,263 nM
same,GI50,MALME-3M melanoma,112 nM
same,TGI,MALME-3M melanoma,234 nM
same,TGI,MOLT-4 leukemia,835 nM
same,GI50,NCI-H226 lung,104 nM
same,TGI,NCI-H226 lung,252 nM
same,GI50,NCI-H23 lung,49.9 nM
same,TGI,NCI-H23 lung,179 nM
same,GI50,NCI-H460 lung,83.5 nM
same,TGI,NCI-H460 lung,217 nM
same,GI50,NCI-H522 lung,88.5 nM
same,TGI,NCI-H522 lung,212 nM
same,GI50,OVCAR-3 ovarian,84.5 nM
same,TGI,OVCAR-3 ovarian,213 nM
same,GI50,OVCAR-4 ovarian,60.4 nM
same,TGI,OVCAR-4 ovarian,189 nM
same,GI50,OVCAR-5 ovarian,37.1 nM
same,TGI,OVCAR-5 ovarian,183 nM
same,GI50,OVCAR-8 ovarian,141 nM
same,TGI,OVCAR-8 ovarian,272 nM
same,GI50,RPMI-8226 leukemia,20.6 nM
same,TGI,RPMI-8226 leukemia,306 nM
same,GI50,RXF 393 renal,56.1 nM
same,TGI,RXF 393 renal,194 nM
same,GI50,SF-268 CNS,112 nM
same,TGI,SF-268 CNS,327 nM
same,GI50,SF-295 CNS,130 nM
same,TGI,SF-295 CNS,259 nM
same,GI50,SF-539 CNS,134 nM
same,TGI,SF-539 CNS,268 nM
same,GI50,SK-MEL-28 melanoma,137 nM
same,TGI,SK-MEL-28 melanoma,270 nM
same,GI50,SK-MEL-5 melanoma,133 nM
same,TGI,SK-MEL-5 melanoma,262 nM
same,GI50,SK-OV-3 ovarian,122 nM
same,TGI,SK-OV-3 ovarian,246 nM
same,GI50,SN12C renal,117 nM
same,TGI,SN12C renal,240 nM
same,GI50,SNB-19 CNS,156 nM
same,TGI,SNB-19 CNS,301 nM
same,GI50,SNB-75 CNS,82.4 nM
same,TGI,SNB-75 CNS,513 nM
same,GI50,SW-620 colon,112 nM
same,TGI,SW-620 colon,236 nM
same,GI50,TK-10 renal,263 nM
same,TGI,TK-10 renal,984 nM
same,GI50,U251 CNS,106 nM
same,TGI,U251 CNS,225 nM
same,GI50,UACC-257 melanoma,96.9 nM
same,TGI,UACC-257 melanoma,217 nM
same,GI50,UACC-62 melanoma,91.3 nM
same,TGI,UACC-62 melanoma,215 nM
same,GI50,UO-31 renal,113 nM
same,TGI,UO-31 renal,234 nM
